# Experiments:
# [1] = system: PSMA-expressing LNCaP cells; test: Internalization studies / cell binding in LNCaP cells; assay type: cell-based, human; details: 68Ga compounds, c = 0.2 nM, 37°C, 1 h, 125,000 cells/well, corrected for unspecific binding
# Protocol: Cell culture: PSMA^+ LNCaP cells (CLS: 300265) were grown in DMEM/Nutrition Mix F-12 with Glutamax-I (1:1) (Invitrogen, Life Technologies, Darmstadt, Germany) supplemented with 10% FCS. Cultures were maintained at 37°C in a 5% CO2/humidified air atmosphere. One day prior to the experiment, cells were harvested using Trypsin/EDTA (0.05% and 0.02%) in PBS, centrifuged and resuspended with culture medium. For cell counting, a Countesse automated cell counter (Invitrogen, Carlsbad, USA) was used. All in vitro binding and internalization studies were performed using live cells seeded 1 day prior to the experiment. For IC50 determination, 150,000 cells/mL were transferred to 24-well plates (1 mL/well), and for internalization studies, 125,000 cells/mL were transferred into PLL-coated 24-well plates.
# Internalization studies: The culture medium was removed, and the cells were washed once with 500 μL DMEM-F12 (5% BSA) before being left to equilibrate in 200 μL DMEM-F12 (5% BSA) at 37°C for a minimum of 15 min. Then, 25 μL (per well) of either DMEM-F12 (5% BSA) or of a 100-μM PMPA solution (blocking) was added, followed by the addition of 25 μL of ^68Ga/^177Lu-labelled PSMA ligand. The final radioligand concentration was 0.2/0.5 nM in all internalization assays. To determine internalization kinetics, cells were then incubated at 37°C for 5, 15, 30 and 60 min, respectively. Experiments were carried out in triplicate for each time point (control and blocking). Incubation was terminated by placing the plate on ice for approximately 1 min and by subsequent removal of the incubation medium. Cells were thoroughly rinsed with 250 μL of PBS. The wash medium was combined with the supernatant of the previous step. This fraction represents the amount of free radioligand. To remove receptor surface bound radioactivity, the cells were then incubated for 10 min with 250 μL of ice cold PMPA solution (10 μM in PBS). After removal of the supernatant, the cells were thoroughly rinsed with another 250 μL of ice cold PBS. Both fractions were combined. The internalized activity was released by incubation with 250 μL of 1 N NaOH, transferred to vials and combined with 250 μL of 1 N NaOH used for rinsing the wells. Quantification of the amount of free, PMPA-releasable and internalized activity was performed in a γ-counter.
# The cellular uptake and internalization kinetics of the different ^68Ga- and ^177Lu-labelled PSMA ligands was determined using PSMA-expressing LNCaP cells. In the case of the ^68Ga-labelled compounds, the final peptide concentration in the assays was 0.2 nM. […] All internalization studies were accompanied by reference studies using ([^125I]I-BA)KuE (c = 0.2 nM). This experimental setup allows data normalization and eliminates the influence of cell count and cell viability on absolute cellular tracer uptake. […] Furthermore, to be able to discriminate between total cellular activity (sum of membrane associated and internalized activity) and internalized activity, all incubations were followed by a washing step with 10 μM PMPA at 4°C to remove specifically cell-surface bound radioligand by displacement.
# [2] = Determination of lipophilicity (shake flask, n-octanol/PBS); assay type: physicochemical; details: n-octanol/PBS; listed for 11/12 but determined for the FFK analogue 11 only (footnote a)
# Protocol: To a solution of 0.5 to 1 MBq of radiolabelled peptide in 500 μl of phosphate-buffered saline (PBS, pH 7.4), 500 μl of n-octanol was added (n = 6). Vials were vortexed vigorously for 3 min. To achieve quantitative phase separation, the vials were centrifuged at 6,000 g for 5 min in a Biofuge 15 (Heraeus Sepatech, Osterode, Germany). The activity concentrations in 100 μl-samples of both the aqueous and the organic phase were measured in a γ-counter. Both the partition coefficient P(o/w), which is defined as the molar concentration ratio of a single species A between n-octanol and water at equilibrium, and logP(o/w), which is an important parameter used to characterize lipophilicity of a compound, were calculated.
# The partition coefficient logP between n-octanol and PBS was determined for the compounds listed in Table 3 using the shake flask method. All compounds are highly hydrophilic, with the DOTAGA compounds being up to one order of magnitude more hydrophilic than the corresponding DOTA analogues. Amongst all compounds tested, [^68Ga]HBED-CC-Ahx-KuE was the most hydrophilic compound.
# [3] = In vivo metabolite analysis by radio-HPLC; details: CD-1 nu/nu mice, 0.5 h p.i.
# Protocol: ^177Lu-10 and ^177Lu-11 were incubated in 80 μL of human serum (37°C) and 80 μL 0.4 M DTPA solution (RT), respectively and after 1, 24 and 48 h, the stability was determined by TLC analysis. The ^68Ga-labelled tracers (40 to 45 MBq) were injected into the tail vein of CD-1 nu/nu mice. The animals were sacrificed after 30 min, and urine, blood and kidney samples were taken. The kidney was frozen in liquid nitrogen, homogenized with a ball mill and extracted with 0.2 to 1 mL PBS containing 200 nmol 2-(phosphonomethyl)pentane-1,5-dioic acid (PMPA). The suspension was first centrifuged (15,000 g), and after ultrafiltration, the extracts were analysed by RP-HPLC. The blood samples were centrifuged to separate the plasma from the blood cells. Plasma proteins were removed by precipitation with acetonitrile (10 min, 4°C) and subsequent centrifugation and ultrafiltration. The blood extract was also analysed by RP-HPLC.
# To investigate the influence of the amino acid composition of the spacer (KFF vs kff) on the metabolic stability in vivo, tissue homogenates and body fluids of mice injected with ^68Ga-11 and ^68Ga-12 were analysed by radio-HPLC. Extraction efficiencies from the blood and from the kidney were 56% and 43% for ^68Ga-11 and 61% and 62% for ^68Ga-12, respectively.
# LNCaP tumour xenograft = test: Biodistribution in LNCaP-tumour-bearing mice; assay type: in vivo; details: LNCaP-tumour bearing CD-1 nu/nu mice, 1 h p.i.
# Protocol: All animal experiments were conducted in accordance with general animal welfare regulations in Germany (Deutsches Tierschutzgesetz, approval #55.2-1-54-2532-71-13). The prostate cancer cell line LNCaP was suspended 1/1 in serum-free medium and Matrigel (BD Biosciences, Germany) and approximately 10^7 cells in 200 μL were inoculated subcutaneously on the right shoulder of 6 to 8 weeks old CD-1 nu/nu mice (Charles River Laboratories). Tumours were grown for 2 to 4 weeks (males) and 4 to 6 weeks (females) to reach 4 to 8 mm in diameter.
# Biodistribution: The ^68Ga-labelled PSMA ligands (approximately 7 to 15 MBq, 0.1 to 0.2 nmol) were injected into the tail vein of isoflurane anesthetized animals. The organ distribution was examined 1 h p.i. and quantified in a γ-counter.
# A comparison of the biodistribution of compounds ^68Ga-11, ^68Ga-12 and the reference [^68Ga]HBED-CC-Ahx-KuE in LNCaP-tumour-bearing CD-1 nu/nu mice (1 h p.i.) is shown in Figure 7.
substance,measurement,setting,value
[^68Ga]DOTAGA-ffk(Sub-KuE) [^68Ga-12],Internalization (1 h) in % of ([125I]I-BA)KuE,[1],42.5 ± 1.7%
same,log P (o/w),[2],−3.6 ± 0.1
same,Intact tracer in blood,[3],100%
same,Kidney accumulation,LNCaP tumour xenograft,96 ± 45 % ID/g
same,Tracer uptake into liver,LNCaP tumour xenograft,0.2 ± 0.04 % ID/g
same,Tracer uptake into lung,LNCaP tumour xenograft,1.1 ± 0.3 % ID/g
same,Tracer uptake into pancreas,LNCaP tumour xenograft,0.4 ± 0.1 % ID/g
same,Tracer uptake into spleen,LNCaP tumour xenograft,5.5 ± 0.2 % ID/g
same,Tumour-to-blood ratio,LNCaP tumour xenograft,17.0 ± 0.5
same,Tumour-to-skeletal muscle ratio,LNCaP tumour xenograft,19.8 ± 0.7
same,Uptake in gastrointestinal tract,LNCaP tumour xenograft,< 0.5 % ID/g
same,Uptake into LNCaP tumour xenograft,LNCaP tumour xenograft,5.2 ± 1.2 % ID/g

# Reference: article PMC4452638, “Synthesis and preclinical evaluation of DOTAGA-conjugated PSMA ligands for functional imaging and endoradiotherapy of prostate cancer” (EJNMMI Research, 2014)
